This is an account of results in patent US10071163B2, “Compositions and methods for selective delivery of oligonucleotide molecules to specific neuron types” (nLife Therapeutics, S.L., priority 2010, dated 2018).

The test system of data set [1] is dopaminergic neurons of the substantia nigra pars compacta. Briefly: Confocal localization of Cy3 label in substantia nigra after ICV administration. It counts as in vivo, mice. Conditions: FIG. 17. The procedure: (§1) For the infusion of siRNAs, C57BV6Ncr1 male mice were deeply anesthetized with isofluorane and placed in a mouse adaptor (Stoelting ref. 51625) attached to a stereotaxic frame with digital display readout (David Kopf Instruments, model 940). […] The needle was left in the place for 3 min to avoid upward flow of the siRNA solution.
(§2) The mice were perfused with 4% PFA at two different time points, 1 and 3 hours post-administration of the siRNA. Brains were dissected and post-fixed in a solution of 4% PFA for 24 h at 4° C. Then brains were placed in a 30% sucrose solution for 48 h at 4° C. Brains were frozen in 2-methylbutane at −30 to −40° C. and stored at −80° C. Brains were sectioned in a cryostat Leica CM3050 S ([…]). Free-floating sections were washed and stored at 4° C. in 0.1 M PBS and 0.001% sodium azide.
(§3) Sections were washed in PBS, blocked with 2% goat serum and 0.1% Triton and incubated with anti-TH antibody (1:800 mouse) overnight at 4° C. After washing, sections were incubated with secondary antibody Alexa Fluor 647 anti-mouse (Invitrogen) for 1 h at room temperature. Finally sections were mounted with Dako Fluorescent Mounting Medium and analyzed using a confocal spectral microscope (FV 1000 Olympus). Pictures were generated using FV 10-ASW 1.7 Viewer.

Data set [2] has as its system noradrenergic neurons of the locus coeruleus. Briefly: Confocal localization of Cy3 label in locus coeruleus after ICV administration. Type of data set: in vivo, mice. Conditions: FIG. 18. On the procedure:
as §1, §2, §3

The test system of data set [3] is 5-HT1AR. Briefly: [3H]8-OH-DPAT autoradiographic binding of 5-HT1AR protein after i.c.v. infusion. It counts as in vivo, mice. Conditions: 30 μg/2.5 μl/1 day into D3V. The procedure: To assay the density of 5-HT1AR protein we used [^3H]8-OH-DPAT for the autoradiographic visualization of 5-HT1A receptor sites. The experimental incubation conditions for [^3H]8-OH-DPAT have been previously described in the state of the art. Briefly, frozen tissue sections were thawed and dried, preincubated in 170 mM Tris-HCl pH 7.6, 4 mM CaCl2 and 0.01% ascorbic acid for 30 minutes at room temperature, and then incubated in the same buffer, including 1 nM [^3H]—OH-DPAT (234.0 Ci/mmol) and 10^−5 M pargyline for 60 minutes at room temperature. Non-specific binding was defined as that remaining in the presence of 10^−5 M 5-HT. After incubation and washing, tissue sections were dipped in distilled ice-cold water and dried rapidly under a cold air stream. Tissues were exposed to tritium-sensitive film together with plastic ^3H-standards for 60 days at 4° C.
A set of molecules (vehicle, ns naked siRNA, ns NLF-siRNA, naked siRNA and NLF-siRNA groups), as described in example 3, were infused at 30 μg/2.5 μl/1 day (2.3 nmoles) into dorsal 3rd ventricle (D3V) at the following stereotaxic coordinates (in mm: AP: −2.0, L: 0, DV: −2.1) using similar mice strain and infusion system of example 2. […]

The test system of data set [4] is presynaptic 5-HT1A receptor. Briefly: Microdialysis of 5-HT in medial prefrontal cortex after acute fluoxetine, i.c.v. siRNA. It counts as in vivo, mice. Conditions: after systemic fluoxetine 20 mg/kg i.p.; siRNA 30 μg i.c.v.; FIG. 9. The text has this:
The increase of extracellular 5-HT produced by reuptake blockade of serotonin transporter (SERT) activates 5-HT1A autoreceptors in the midbrain raphe nuclei, suppressing cell firing and terminal release, an effect that attenuates the extracellular 5-HT increase produced by reuptake blockade. Consequently, the activation of postsynaptic serotonin receptors responsible for the therapeutic effect is lower than expected. It is known that the blockade of these negative feedback mechanisms with 5-HT1A receptor antagonists (i.e pindolol) potentiates the 5-HT increase produced by SSRIs and, therefore, might serve to accelerate the clinical effects of SSRIs.

For data set [5], the target named is T1, 5-HT1AR (Mus musculus, UniProt Q64264).
T1 sequence (Q64264 1-421): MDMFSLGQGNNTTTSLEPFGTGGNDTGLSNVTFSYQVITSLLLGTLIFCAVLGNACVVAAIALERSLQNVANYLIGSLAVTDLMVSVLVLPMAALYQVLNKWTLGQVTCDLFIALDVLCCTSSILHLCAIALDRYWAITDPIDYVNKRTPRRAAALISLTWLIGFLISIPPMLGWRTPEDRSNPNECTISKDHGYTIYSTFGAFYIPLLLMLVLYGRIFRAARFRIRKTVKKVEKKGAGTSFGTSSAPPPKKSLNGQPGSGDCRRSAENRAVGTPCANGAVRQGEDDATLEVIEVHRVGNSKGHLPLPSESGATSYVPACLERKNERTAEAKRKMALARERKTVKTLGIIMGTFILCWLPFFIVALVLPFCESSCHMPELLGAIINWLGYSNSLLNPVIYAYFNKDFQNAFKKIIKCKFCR
Briefly: Microdialysis of 5-HT in mPFC after 8-OH-DPAT, intranasal siRNA. The note with it: intranasal 15 μg/5 μl in each nostril; 8-OH-DPAT 0.5 mg/kg i.p.; FIG. 12B.
Experimental: To evaluate 5-HT release, an intracerebral microdyalisis procedure was used as has been described in the state of the art. In brief, the shaft of the probe was made up of 15-mm long, 25-gauge (501 μm OD, 300 μm ID) stainless-steel tubing. The inflow and outflow tubes threaded through the 25 gauge tubing consisted of fused silica capillary tubing of 110 μm OD and 40 μM ID. The upper exposed ends of silica tubing were inserted into 7-mm long, 27 gauge (410 μm OD, 220 μM ID) stainless-steel tubing. Mice were anesthetized with sodium pentobarbital (40 mg/kg, i.p.) and positioned in a stereotaxic frame.
Dialysate samples of 60 μl were collected every 30 min in microcentrifuge vials.
At the completion of dialysis experiments, mice were sacrificed and the brains were immediately removed and frozen at −70° C. Coronal sections (50 μm) of the brain were cut afterwards on a cryostat and stained with cresyl violet, according to standard procedures, for localization of the perfusion site. Only data obtained from animals with histologically correct probe placements were used for subsequent statistical analysis.
The retention time for 5-HT was 3.5-4 min and the detection limit was 2 fmol/sample.
Mice were anesthetized with pentobarbital 40 mg/kg i.p and positioned on their backs. PBS or NLF-siRNA was slowly and gently dropped in alternating nostril with a micropipette tip in 5-ul aliquots.

The target in data set [6] is T1, 5-HT1AR. Briefly: 8-OH-DPAT-induced hypothermia after i.c.v. infusion into D3V. Type of data set: in vivo, mice. Set-up: we used [^3H]8-OH-DPAT for the autoradiographic visualization of 5-HT1A receptor sites; from tissue; host or cells: mouse brain (dorsal raphe nucleus, prefrontal cortex, hippocampus): living animal or frozen 14 µm sections. Conditions: 30 μg/2.5 μl/1 day into D3V; 24 h after infusion; 8-OH-DPAT 1 mg/kg i.p.; FIG. 6. The procedure: To test a functional measure of the pre-synaptic 5-HT1AR activity, we evaluated the hypothermia response induced by (R)-(+)-8-hydroxy-2-(di-n-propylamino)tetralin hydrobromide (8-OH-DPAT, a selective 5-HT1AR agonist) 24 hs after the infusion of a pool of naked siRNA or NLF-siRNA into dorsal raphe nucleus (DRN, 0.3 μg (0.02 nmoles)/1 μl/2 days). […] Mice were kept in individual cages in experimental room at stable temperature of 22° C. 1 h before the experiment. All experiments were carried out between 10:00 a.m. and 14:00 p.m. Body temperature was measured by inserting a lubricated probe into the rectum 5 min before the reading of the temperature while the mice was freely moving. The readings were obtained with a digital thermometer. A basal value was measured 5 min before and 15, 30, 60 and 120 min after 8-OH-DPAT administration. […] Body temperature was assessed 24 hs after the last application of 5-HT1A-targeting siRNAs into DRN in different groups of mice and in their respective controls. […]
To evaluate the NLF-siRNA effect on the functional features of 5-HT1AR we assayed hypothermia response induced by 8-OH-DPAT and 5-HT release in the medial prefrontral cortex (mPFC). We evaluated the hypothermia response induced by 8-OH-DPAT 24 hs after the infusion of a pool of naked siRNAs or NLF-siRNA (as described in example 2) into dorsal 3rd ventricle (D3V, 30 μg/2.5 μl/1 day).

The mark [7] stands for this setting: 1 hour after ICV administration, 100 μg.

In the case of “NLF-NS-siRNA-Cy3: non-sense siRNA (SEQ ID NO 69/70) conjugated to nomifensin, antisense strand carrying Cy3 (chain 1 AGUACUGCUUACGAUACGG; chain 2 CCGUAUCGUAAGCAGUACU; conjugated to nomifensin, Cy3 label, positions not given here)”, in data set [1] (setting [7]), the “Cy3 red labeling in TH-positive nigral neurons” value is on record as “can be detected within TH-positive nigral neurons” and the “Cy3 red labeling in gabaergic neurons of the substantia nigra reticulata” value is given as “not in the gabaergic neurons”. In addition, in data set [1] (3 hours after ICV injection), the “Cy3 red intracellular labeling in substantia nigra” value was “any red intracellular labeling can not be detected”. Also, the “Cy3 red labeling in TH-positive noradrenergic neurons” value in data set [2] (setting [7]) is “can be detected mainly within TH-positive noradrenergic neurons”. For the same substance, the “Cy3 red intracellular labeling in locus coeruleus” value in data set [2] (3 hours after ICV injection) is reported as “any red intracellular labeling can not be detected”.
Consider “ns NLF-siRNA: nonsense siRNA (SEQ ID NO 56/57) conjugated to a group of formula (I) and one targeting agent; control (chain 1 AGUACUGCUUACGAUACGG; chain 2 CCGUAUCGUAAGCAGUACU; further chemistry not given here)”, for which the “knockdown effect on 5-HT1AR” value in the data set on 5-HT1AR [3] is listed as “did not show a knockdown effect”. In addition, in data set [4], the “dyalisate serotonin concentration in medial prefrontal cortex, higher than baseline” value is on record as about 50%. Besides, the “extracellular 5-HT levels in mPFC following systemic 8-OH-DPAT” value with 5-HT1AR [5] was “reduced”. In addition, in the data set with 5-HT1AR [6], the “hypothermia response induced by 8-OH-DPAT” value was “typical curve in the hypothermia response”.
